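Each compound was tested at five concentrations against cells in 96-well plates for 48 hours. At the GI50, growth is halved. TGI is the concentration that stops growth completely.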
How the values were obtained:
Assay in all cases: NCI anticancer screen, dose series, 48 h; in the data active = GI50 below about 0.43 µM; inactive = the rest
[1] = tested on: NCI-H226 lung
[2] = tested on: OVCAR-8 ovarian
[3] = tested on: SW-620 colon
[4] = tested on: SK-MEL-28 melanoma
[5] = tested on: RXF 393 renal
[6] = tested on: OVCAR-5 ovarian
[7] = tested on: MCF7 breast
[8] = tested on: EKVX NSCLC
[9] = tested on: HCT-116 colon
[10] = tested on: CAKI-1 renal
[11] = tested on: PC-3 prostate
[12] = tested on: HS 578T breast
[13] = tested on: SK-OV-3 ovarian
[14] = tested on: TK-10 renal
[15] = tested on: HOP-92 NSCLC
[16] = tested on: OVCAR-4 ovarian
[17] = tested on: CCRF-CEM leukemia
[18] = tested on: NCI-H460 lung
[19] = tested on: HL-60(TB) leukemia
[20] = tested on: UO-31 renal
[21] = tested on: RPMI-8226 leukemia
[22] = tested on: SF-539 CNS
[23] = tested on: A549 NSCLC
[24] = tested on: MOLT-4 leukemia
[25] = tested on: M14 melanoma
[26] = tested on: 786-0 renal
[27] = tested on: NCI-H23 lung
[28] = tested on: HT29 colon
[29] = tested on: MDA-MB-231 breast
[30] = tested on: NCI-H522 lung
[31] = tested on: SN12C renal
[32] = tested on: U251 CNS
[33] = tested on: MALME-3M melanoma
[34] = tested on: UACC-62 melanoma
[35] = tested on: MDA-MB-435
[36] = tested on: SF-295 CNS
[37] = tested on: K-562 leukemia
[38] = tested on: KM12 colon
[39] = tested on: SNB-19 CNS
[40] = tested on: SK-MEL-5 melanoma
[41] = tested on: SF-268 CNS
[42] = tested on: IGROV1 ovarian
[43] = tested on: SNB-75 CNS
[44] = tested on: ACHN renal
[45] = tested on: LOX IMVI melanoma
[46] = tested on: HCT-15 colon
[47] = tested on: COLO 205 colon
[48] = tested on: T-47D breast
[49] = tested on: DU-145 prostate
[50] = tested on: NCI/ADR-RES ovarian
[51] = tested on: SK-MEL-2 melanoma
[52] = tested on: BT-549 breast
[53] = tested on: SR leukemia
[54] = tested on: HCC-2998 colon
[55] = tested on: A498 renal
[56] = tested on: OVCAR-3 ovarian
[57] = tested on: HOP-62 NSCLC
[58] = tested on: UACC-257 melanoma

NS(=O)(=O)c1ccc(N=Nc2c(O)[nH]c3ccc(Cl)cc23)cc1
> 16.9 µM: TGI [9]
> 21.9 µM: TGI [22]
14.5 µM: TGI [13]
inactive: GI50 [1] 13.6 µM | GI50 [2] 12.9 µM | GI50 [3] > 22.4 µM | GI50 [4] > 25 µM | GI50 [5] 12.9 µM | GI50 [6] > 25 µM | GI50 [7] 12.2 µM | GI50 [8] > 25 µM | GI50 [9] 7.04 µM | GI50 [10] > 17.9 µM | GI50 [11] > 25 µM | GI50 [12] 11.6 µM | GI50 [13] 6.73 µM | GI50 [14] 5.78 µM | GI50 [15] > 9.61 µM | GI50 [16] > 21.9 µM | GI50 [17] > 7.22 µM | GI50 [18] 8.62 µM | GI50 [19] > 25 µM | GI50 [20] 6.46 µM | GI50 [21] > 25 µM | GI50 [22] 5.29 µM | GI50 [23] 11.3 µM | GI50 [24] > 25 µM | GI50 [25] > 25 µM | GI50 [26] 8.42 µM | GI50 [27] 14 µM | GI50 [28] > 18.9 µM | GI50 [29] 8.86 µM | GI50 [30] 5.38 µM | GI50 [31] 17.2 µM | GI50 [32] 6.64 µM | GI50 [33] 20.7 µM | GI50 [34] > 15.2 µM | GI50 [35] > 25 µM | GI50 [36] > 25 µM | GI50 [37] > 25 µM | GI50 [38] 7.58 µM | GI50 [39] > 25 µM | GI50 [40] 16.1 µM | GI50 [41] 17.6 µM | GI50 [42] > 19.6 µM | GI50 [43] 8.66 µM | GI50 [44] 9.95 µM | GI50 [45] 9.96 µM | GI50 [46] > 22.1 µM | GI50 [47] > 25 µM | GI50 [48] > 25 µM | GI50 [49] 15.5 µM | GI50 [50] 24.5 µM | GI50 [51] > 18.3 µM | GI50 [52] > 16.9 µM | GI50 [53] 6.13 µM | GI50 [54] 18.3 µM | GI50 [55] > 22 µM | GI50 [56] 4.87 µM | GI50 [57] 13.4 µM | GI50 [58] > 25 µM
14.2 µM: TGI [56]
> 23 µM: TGI [14]
> 20.6 µM: TGI [20]
24.9 µM: TGI [43]
> 20.3 µM: TGI [26]
> 25 µM: TGI [1] | TGI [2] | TGI [3] | TGI [4] | TGI [5] | TGI [6] | TGI [7] | TGI [8] | TGI [10] | TGI [11] | TGI [12] | TGI [15] | TGI [16] | TGI [17] | TGI [18] | TGI [19] | TGI [21] | TGI [23] | TGI [24] | TGI [25] | TGI [27] | TGI [28] | TGI [29] | TGI [30] | TGI [31] | TGI [32] | TGI [33] | TGI [34] | TGI [35] | TGI [36] | TGI [37] | TGI [38] | TGI [39] | TGI [40] | TGI [41] | TGI [42] | TGI [44] | TGI [45] | TGI [46] | TGI [47] | TGI [48] | TGI [49] | TGI [50] | TGI [51] | TGI [52] | TGI [53] | TGI [54] | TGI [55] | TGI [57] | TGI [58]
